Reference: publication PMC11432405, “Development of Novel Alaninamide Derivatives with Anticonvulsant Activity and Favorable Safety Profiles in Animal Models” (International Journal of Molecular Sciences, 2024)
Like-named read-outs stand apart in the source and are kept apart here.

Assays:
[1] = tested on: maximal electroshock (MES) seizures; assay: maximal electroshock seizure (MES) test; assay type: in vivo, mice
Excerpt: Epilepsy is a multifaceted disorder with often unclear etiology, making it challenging to pinpoint a specific receptor or transporter as the definitive target. Consequently, the discovery of ASMs deviates from the traditional drug development pathway, which typically involves designing a new molecule, docking it with a specific biological target, and performing chemical synthesis, followed by in vitro assays. Instead, numerous animal seizure models, which mirror various types of human epileptic seizures, are initially employed in the process of new ASM discovery. This approach has been instrumental in the identification and introduction into clinical practice of all currently used ASMs and continues to be a cornerstone in the preclinical development of new anticonvulsants. The primary justification for prioritizing in vivo screening over in vitro binding and functional studies is the complex and often not fully elucidated mechanisms of action of known ASMs. This approach also facilitates the discovery of compounds with novel, previously undefined pharmacodynamic properties. In light of this, we evaluated all compounds obtained in the current studies using the MES test, which remains one of the most valuable preclinical screening models for tonic-clonic seizures, as well as partial convulsions with or without secondary generalization in humans. This test allows for a comprehensive assessment of the anticonvulsant efficacy of new ASM candidates and is considered highly relevant for predicting their therapeutic efficacy in human epilepsy. The MES test was carried out in mice following the intraperitoneal (i.p.) administration of a screening dose of 100 mg/kg in a group consisting of four animals. The efficacy of the compounds synthesized was evaluated at 0.5 h pretreatment time.
Fresh solutions were prepared daily for each experimentation session.
Each group consisted of six animals.

[2] = tested on: Cav1.2 (L-type) (diltiazem site); assay: radioligand binding Cav1.2 (L-type) diltiazem site; conditions: 100 µM, rat cerebral cortex
Experimental: (§1) Binding/functional studies were performed commercially in Cerep Laboratories (Poitiers, France) using testing procedures described elsewhere. The general information is listed in Table S3 in the Supporting Information.
(§2) Table S3. The general information of radioligand binding/functional assays. […]
Ca2+channel (L, diltiazem site) (antagonist radioligand) […]
(§3) Assays were performed commercially in Eurofins Cerep SA (Celle l’Evescault, France) and Eurofins
(§4) Panlabs Discovery Services Taiwan, Ltd. (New Taipei City, Taiwan), using procedures describe

SH-SY5Y cells = assay: neurocytotoxicity MTT viability assay; assay type: cell-based, human; conditions: 1–50 µM, 24 h
Experimental: To evaluate selected compounds’ hepatocytotoxicity and neurocytotoxicity, a human hepatocellular carcinoma cell line, HepG2 (ATCC® HB-8065™), and a human neuroblastoma cell line, SH-SY5Y (ATCC®, CRL-2266™), were used. Both cell lines were cultured in standard culture conditions (5% CO2, 37 °C, 95% humidity) using Dulbecco′s Modified Eagle′s—Medium (DMEM; Gibco, Thermo Scientific, Waltham, MA, USA) supplemented with 10% (vol/vol) fetal bovine serum (FBS; Gibco, Thermo Scientific, Waltham, MA, USA) and an antibiotic mixture (Penicillin, Streptomycin, Amphotericin B; Gibco, Thermo Scientific, Waltham, MA, USA). Cells were cultured with compounds 5, […], or 39 (1–50 µM) for 24 h and then an MTT (3-(4,5-dimethylthiazol-2-yl)-2,5diphenyltetrazolium bromide, Sigma-Aldrich, St. Louis, MO, USA) viability assay was performed. The formazan crystals were dissolved in DMSO (Sigma-Aldrich, St. Louis, MO, USA), and the absorbance at 570 nm was measured using a microplate reader (SpectraMax® iD3, Molecular Devices, San Jose, CA, USA). The experiment was performed three times in duplicate. Each bar represents the mean (±SEM) percentage of viable cells in comparison to the control (defined as 100% and represented by untreated cells).
Figure 3 The viability of SH-SY5Y cells incubated in the presence of compounds 5, 17, and 39. […] Cell viability was measured using an MTT assay. […]

Na+ channel (site 2) = assay: radioligand binding Na+ channel (site 2); conditions: 100 µM, rat cerebral cortex
Experimental: as §1, §2, §3, §4

6 Hz (32 mA) seizures = assay: 6 Hz (32 mA) psychomotor seizure model;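 note: adult male albino Swiss CD-1 mice, each used once, with compounds suspended in 1% Tween 80 in water as vehicle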
[3] = tested on: Cav1.2 (L-type) (dihydropyridine site); assay: radioligand binding Cav1.2 (L-type) dihydropyridine site; conditions: 100 µM, rat cerebral cortex
Experimental: as §1
Table S3. The general information of radioligand binding/functional assays.
Ca2+channel (L, dihydropyridine site) (antagonist radioligand) […]
as §3, §4

6 Hz (44 mA) seizures = assay: 6 Hz (44 mA) psychomotor seizure model
[4] = tested on: Cav1.2 (L-type) (verapamil site); assay: radioligand binding Cav1.2 (L-type) verapamil site; conditions: 100 µM, rat cerebral cortex
Experimental: as §1, §2
Ca2+channel (L, verapamil site) (antagonist radioligand) […]
as §3, §4

## CC(C(=O)NCc1ccc(OCc2ccccc2)cc1)N1C(=O)CCC1=O (stereo not shown) [Compound 5, N-(4-(benzyloxy)benzyl)-2-(2,5-dioxopyrrolidin-1-yl)propanamide]
[1]; Mus musculus, ip, mice i.p., 100 mg/kg, 0.5 h, four mice, read-out: protection (efficacy) in the MES screening
  responders at 100 mg/kg: 100%
[1]; Mus musculus, ip, mice i.p., TPE 0.5 h, 95% confidence interval in parentheses
  ED50: 48 mg/kg
[1]; Mus musculus, ip, mice i.p., dose of 100 mg/kg, pretreatment time 0.5 h, read-out: MES test: number of mice protected / number of mice tested (converted)
  responders at 100 mg/kg: 100%
[1]; TD50 rotarod / ED50 MES
  PI (TD50/ED50) MES: > 6.3
[2]
  % Inhibition of Control Specific Binding: 68.5 (100) %
SH-SY5Y cells
  toxic effect on SH-SY5Y cell viability (MTT): do not exhibit toxic effects
Na+ channel (site 2)
  % Inhibition of Control Specific Binding: 38.2 (100) %
6 Hz (32 mA) seizures; Mus musculus, ip, 0.5 h, read-out: ED50 6 Hz (32 mA), mice i.p., TPE 0.5 h, 95% confidence interval in parentheses
  ED50: 45.2 mg/kg
6 Hz (32 mA) seizures; Mus musculus, ip, 0.5 h, read-out: protection (efficacy) in the 6 Hz (32 mA) screening
  responders at 100 mg/kg: 50%
6 Hz (32 mA) seizures; TD50 rotarod / ED50 6 Hz (32 mA)
  PI (TD50/ED50) 6 Hz: > 6.6
6 Hz (32 mA) seizures; mice i.p., TPE 0.5 h, 95% confidence interval in parentheses
  ED50 6 Hz (32 mA): 45.19 (37.31–54.73) mg/kg
other
  melting point: 102.9 to 103.4 °C
[3]
  % Inhibition of Control Specific Binding: 82.3 (100) %
6 Hz (44 mA) seizures; Mus musculus, ip, 0.5 h, read-out: ED50 6 Hz (44 mA)
  ED50: 201 mg/kg
6 Hz (44 mA) seizures; TD50 rotarod / ED50 6 Hz (44 mA)
  PI (TD50/ED50) 6 Hz (44 mA): >1.5
[4]
  % Inhibition of Control Specific Binding: 57.1 (100) %
